Experimental data taken from article PMC3254626, “Targeting RNA Polymerase Primary σ^70 as a Therapeutic Strategy against Methicillin-Resistant Staphylococcus aureus by Antisense Peptide Nucleic Acid” (PLoS ONE, 2012).
≈ marks a conversion by molar mass, not a printed value. Where two headings read alike, the source gives them in different places. Square brackets hold non-standard residues; d marks the D form. Peptide text beside a SMILES is read from it. Ahx = NCCCCCC(=O)O; βAla = NCCC(=O)O

Experiments:
Experiment in all cases: microbe, parasite or virus in culture
Format in all cases: cell-based, Staphylococcus aureus
[1] = system: S. aureus ATCC29213; settings: read-out: MIC for S. aureus strains, ATCC 29213
From the text: (§1) Secondary structure of rpoD mRNA predicted by RNA structure 4.6 software. […] Building from evidence that 12-base antisense PNAs was an effective length, five plausible target sites located in the region that satisfied both above aspects were chosen for synthesis of complementary antisense PNAs at 12-base length. Effective target site in rpoD was verified by modified MIC test of PPNA in four S. aureus strains with different characteristics in resistance phenotype. All PNAs used are covalently conjugated with the same cell penetrating peptide (KFF)3K at the carbon terminus (corresponding to the 3′ end of a conventional oligonucleotide).
(§2) Optimal anti-rpoD PPNA was selected by minimal inhibitory concentration (MIC) results determined for clinical isolates of pathogenic S. aureus species.
(§3) MICs were determined twice by the microdilution assay in sterilized 96-well polypropylene microtiter plates according to the broth microdilution guideline based on Good et al.. Briefly, single colony overnight culture of subjected bacterial cells was diluted to give a final inoculation at 10^5 CFU/mL in duplicate 100 µL Mueller Hinton (MH) broth in a low-binding 96-well microtiter plate. Stocks of PPNA, Scr PPNA and CPPs were added immediately to the indicated final concentrations. Plates were incubated at 35°C in aerobic environment for 24 h of overnight culture. MICs were the lowest PNA concentrations that prevented bacterial growth by visual inspection after overnight (24 h) growth. To verify the specific antisense effect, peptide was also conjugated to a scrambled PNA with a base sequence that was not complementary to the selected target site of rpoD mRNA. To control for nonspecific toxicity, the MIC of the control CPPs (KFF)3K and (RXR)4XB in all cases, was above the limit of measurement, which was 60 or 30 µM.

[2] = system: MRSA WHO-2; settings: read-out: MIC for S. aureus strains, WHO-2
From the text: as §1, §2, §3

[3] = system: MRSA XIJING (MDR clinical isolate); settings: broth microdilution, MH broth, inoculum 10^5 CFU/mL, 35°C, 24 h, visual inspection, determined twice, read-out: MIC for S. aureus strains, XIJING
From the text: as §1, §2, §3

[4] = system: MRSA/VISA Mu50; settings: broth microdilution, MH broth, inoculum 10^5 CFU/mL, 35°C, 24 h, visual inspection, determined twice, read-out: MIC for S. aureus strains, Mu 50
From the text: as §1, §2, §3

[5] = Staphylococcus aureus, ATCC29213, broth microdilution, MH broth, inoculum 10^5 CFU/mL, 35°C, 24 h, visual inspection, determined twice, antibiotic sensitive QC strain
[6] = Staphylococcus aureus, broth microdilution, MH broth, inoculum 10^5 CFU/mL, 35°C, 24 h, visual inspection, determined twice, MRSA

MIC ([1]; ATCC29213, 24 h)	MIC ([2]; WHO-2, 24 h)	MIC [3]	MIC [4]	MIC ([1]; broth microdilution, MH broth, inoculum 10^5 CFU/mL, 35°C, 24 h, visual inspection, determined twice, antibiotic sensitive QC strain)	MIC ([2]; broth microdilution, MH broth, inoculum 10^5 CFU/mL, 35°C, 24 h, visual inspection, determined twice, MRSA)	SMILES	MIC ([3]; Staphylococcus aureus)	MIC [1, 5]	MIC [2, 6]	MIC ([4]; Staphylococcus aureus)
>60 µM	>60 µM					NCCCC[C@H](NC(=O)[C@H](Cc1ccccc1)NC(=O)[C@H](Cc1ccccc1)NC(=O)[C@H](CCCCN)NC(=O)[C@H](Cc1ccccc1)NC(=O)[C@H](Cc1ccccc1)NC(=O)[C@H](CCCCN)NC(=O)[C@H](Cc1ccccc1)NC(=O)[C@H](Cc1ccccc1)NC(=O)[C@@H](N)CCCCN)C(=O)O [(KFF)3K] (H-KFFKFFKFFK-OH)				
> 30 µM	> 30 µM	> 30 µM	> 30 µM			N=C(N)NCCC[C@H](NC(=O)CCCCCNC(=O)[C@H](CCCNC(=N)N)NC(=O)[C@H](CCCNC(=N)N)NC(=O)CCCCCNC(=O)[C@H](CCCNC(=N)N)NC(=O)[C@H](CCCNC(=N)N)NC(=O)CCCCCNC(=O)[C@H](CCCNC(=N)N)NC(=O)[C@H](CCCNC(=N)N)NC(=O)CCCCCNC(=O)[C@@H](N)CCCNC(=N)N)C(=O)NCCCCCC(=O)NCCC(=O)O [(RXR)4XB] (H-R[Ahx]RR[Ahx]RR[Ahx]RR[Ahx]R[Ahx][βAla]-OH)				
						CC1(C)S[C@@H]2[C@H](NC(=O)[C@H](N)c3ccccc3)C(=O)N2[C@H]1C(=O)O [ampicillin]	> 1020 µM	1 µM (≈ 0.349 µg/mL)	256 µM (≈ 89.4 µg/mL)	> 1020 µM
		>1024 µM	1024 µM (≈ 560 µg/mL)	8 µM (≈ 4.37 µg/mL)	256 µM (≈ 140 µg/mL)	CC(C)(O/N=C(\C(=O)N[C@@H]1C(=O)N2C(C(=O)[O-])=C(C[n+]3ccccc3)CS[C@H]12)c1csc(N)n1)C(=O)O [ceftazidine]				
						Cc1onc(-c2ccccc2)c1C(=O)N[C@@H]1C(=O)N2[C@@H]1SC(C)(C)[C@@H]2C(=O)O [oxacillin]	> 1020 µM	0.5 µM (≈ 0.201 µg/mL)	512 µM (≈ 206 µg/mL)	> 1020 µM
